# Measured values as given in patent US9707228B2, “Dry powder formulation” (Agency for Science, Technology and Research, priority 2012, dated 2017).
# Where a name gives a salt, the structure may show the parent alone.
# Test system: Pseudomonas aeruginosa
# Assay: MIC determination via the microdilution method
# Format: cell-based
# Conditions: read-out: minimum inhibitory concentration (MIC)
# Source text: Ciprofloxacin hydrochloride and gatifloxacin hydrochloride were supplied by Junda Pharmaceutical Co. Ltd (of Guangzhou of China). The aqueous solution of ciprofloxacin hydrochloride and gatifloxacin hydrochloride (at a weight ratio of 1:2.5) was obtained by dissolving both drugs together in water. The weight ratio of the individual quinolone in the solution (as well as in the resultant spray-dried particle) was based on the quinolone's minimum inhibitory concentration (MIC). The MIC was experimentally determined and a ratio of the quinolones was obtained as a guideline in developing the final workable proportion. The quinolones' MIC values were important as they provided preliminary guidance on the required therapeutic dose of each quinolone in the binary (SD-CIP/GAT) powder formulation (i.e. combination ratios). The MICs of the various quinolones for the bacteria Pseudomonas aeruginosa different bacteria were determined via the microdilution method and used to determine the desired binary drug proportions. For the bacteria Pseudomonas aeruginosa, since MICCIP:MICGAT is 1:2 (actual values are 0.25 μg/ml:0.5 μg/ml), the binary formulation was composed of CIP:GAT in the ratio of 1:2. […]
row,Structure (SMILES),MIC
1,"O=C(O)c1cn(C2CC2)c2cc(N3CCNCC3)c(F)cc2c1=O [CIP, ciprofloxacin hydrochloride]",0.25 µg/mL
2,"COc1c(N2CCNC(C)C2)c(F)cc2c(=O)c(C(=O)O)cn(C3CC3)c12 (centres unmarked) [GAT, gatifloxacin hydrochloride]",0.5 µg/mL
